Data: patent publication US12234299B2, “Peptides for inducing bacteriocin synthesis and methods to identify and/or select and/or optimize the same” (SYNGULON S.A., priority 2018, dated 2025)

Experiments:
[1] = tested on: sptA promoter (PsptA), ScuR/SarF system; experiment: Luciferase (luxAB) promoter activity of PsptA with exogenous synthetic peptides; assay type: cell-based, Streptococcus salivarius HSISS4
Method: (§1) Overnight precultures were diluted at a final OD600 of 0.05. A volume of 300 μl of culture samples was incubated in the wells of a sterile covered white microplate with a transparent bottom (Greiner, Alphen a/d Rijn, The Netherlands) for 75 min at 37° C. and then supplemented with synthetic peptides (1 μM, except if otherwise stated) or DMSO, and xylose where required. Growth (OD600) and luciferase (Lux) activity (expressed in relative light units) was monitored at 10 min intervals during 24 h in a multi-wells plate reader (Hidex Sense, Hidex, Turku, Finland) as previously described (Fontaine et al., 2013).

slvX promoter (PslvX) = experiment: Luciferase (luxAB) promoter activity of PslvX with synthetic peptides; assay type: cell-based, Streptococcus salivarius HSISS4
Method: as §1

comS promoter (PcomS) = experiment: Luciferase (luxAB) promoter activity of PcomS with synthetic peptides; assay type: cell-based, Streptococcus salivarius HSISS4
Method: as §1

[2] = tested on: comX promoter (PcomX) and ComX-dependent promoters; experiment: Luciferase (luxAB) activity of PcomX and ComX-dependent late competence promoters; assay type: cell-based, Streptococcus salivarius HSISS4; settings: 1 μM; FIG. 9
Method: as §1

ScuR = experiment: Mobility shift assay (EMSA) of promoter probes with purified ScuR and synthetic peptide; assay type: binding, Streptococcus salivarius; settings: FIG. 4A
Method: All double-stranded DNA fragments (30 or 40 bp) were obtained from annealing of single-stranded Cy3-labelled (at 5′ end) and unlabeled oligonucleotides. Typically, a gel shift reaction (20 μl) was performed in a binding buffer (20 mM Tris-HCl pH 8.0, 150 mM NaCl, 1 mM EDTA, 1 mM DTT, 10% glycerol, 1 mg ml-1 BSA) and contained 150 ng labelled probe and […] StrepTag proteins. When necessary, […] of ComS peptides (unless otherwise stated) are added. The reaction is incubated at 37° C. for 10 min prior to loading of the samples on a native TBE 5% gel. The gel is next subjected to 80 V for approximately 1 h in TBE buffer. DNA complexes were detected by fluorescence on the Ettan DIGE Imager with bandpass excitation filters (nm): 540/25 (Cy3) or 635/30 (Cy5) and bandpass emission filters: 595/25 (Cy3) or 680/30 (Cy5) (GE Healthcare, Waukesha, WI).
The PCR-amplified scuR-StrepTag and gene sarF-StrepTag were cloned into the pBAD-comR-ST vector (see supplemental information). The ComR-StrepTag, ScuR-StrepTag and SarF-StrepTag recombinant proteins were overproduced in E. coli and purified as previously described (Fontaine et al., 2013) in standard native conditions on Strep-Tactin agarose beads (IBA).

[3] = tested on: S. salivarius producer strains; indicator strain Lactococcus lactis IL1403; experiment: Bacteriocin detection assay (spot-on lawn, multilayer); assay type: cell-based, Streptococcus salivarius; settings: FIG. 5B
Method: The spot-on lawn (multilayer) detection method was performed as followed: 10 μl of overnight cultures of producer strains were diluted in fresh M17G medium and grown to reach mid-log phase (OD600=˜0.5). In parallel, we casted plates with a bottom feeding layer (M17G 1.5% agar) supplemented with a synthetic peptide where required. Next, we mixed 100 μl of an overnight culture of Lactococcus lactis IL1403 (indicator strain) in pre-warmed soft M17G medium (0.3% agar) and casted it as a top layer. Finally, we incubated mid-log phase cultures for 30 minutes with the corresponding synthetic peptides and spotted 3 μl of the producer strains on the top layer. Plates were incubated overnight before analysis of the inhibition zones surrounding the producer colonies.

[4] = tested on: S. salivarius HSISS4 derivatives; experiment: Competence development (natural transformation frequency); assay type: cell-based, Streptococcus salivarius
Method: To induce competence, overnight CDMG precultures were diluted at a final OD600 of 0.05 in 300 μl (10 ml concerning the randomized peptide screen) of fresh CDMG and incubated 75 min at 37° C. Then, we added the pheromone sComS as well as DNA (overlapping PCRs or plasmids) and let the cells recover for 3 h at 37° C. before plating on M17G agar supplemented with antibiotics where required. Null-mutants were constructed by exchanging (double homologous recombination) the coding sequences (CDS) of target genes (sequence between start and stop codons) for either chloramphenicol or erythromycin resistance cassette. If stated, mutants were cleaned for the lox site-flanked resistance cassette, as previously described (Fontaine et al. Mol Microbiol 2010; 87:1113-1132). In case of deletion of multiple CDSs, the region between the start codon of the first CDS and the stop codon of the last CDS was deleted. Integration of the antibiotic resistance cassette at the right location was subsequently checked by PCR. The promoters of sptA genes was fused to the luxAB reporter genes and inserted with a chloramphenicol resistance cassette at the permissive tRNA threonine locus (HSISS4_r00061) by double homologous recombination. In case of ΔscuR and ΔsarF in-frame deletion, we used the two-step selection/counter-selection strategy previously described (Mignolet et al. Cell Rep 2018, 22:1627-1638). We transformed the wild-type strain with an overlapping PCR product composed of 4 fragments: (I) the upstream region of scuR or sarF genes, (II) the downstream region of scuR or sarF genes, (III) a cassette that includes the erythromycin resistance gene (erm) and a gene encoding the orotate transporter oroP, and finally (IV) the downstream region of scuR or sarF genes. We selected a first event of double recombination on medium supplemented with erythromycin. Next, we selected an intramolecular recombination between region (I) and (IV) that excises the erm-oroP cassette by growing cells on M17G supplemented with the toxic 5-fluoro-orotic acid (5-FOA) compound. In […] of oroP, 5-FOA is not able to cross the membrane and penetrate the cytoplasm where it is deleteriously incorporated in the nucleotide metabolic pathway (Overkamp et al., 2013). At final, we engineered an in-frame deletion mutant of scuR or sarF in which the first seven codons were fused to the last six codons without any cassette scar (see below for detailed cloning method).

[5] = WT background, dose response FIG. 3D
[6] = ΔscuR strain (SarF only), FIG. 3D

For “sBI7: synthetic peptide: last 8 amino acids of the clone BI7 peptide MIAILPFWLILG (sBI7)”, the “amplitude of PsptA response compared with PslvX and PcomS” value ([1]; WT background, FIG. 3D) was “highest amplitude”, the “peptide concentration to which PsptA is responsive” value [1, 5] was “less than 1 nM” and the “activity of all promoters (PsptA, PslvX, PcomS) in ΔsarF compared to WT” value ([1]; ΔsarF strain, FIG. 3D) was “slightly up compared to the WT”. For the same substance, the “SarF-mediated PsptA response” value ([1]; ΔscuR strain, FIG. 3D) was “able to induce the SarF-mediated PsptA response”, the “induction of sptA, comS and slvX promoters in ΔscuR-sarF double mutant” value ([1]; ΔscuR-sarF, FIG. 3F) was “utterly erased” and the “peptide concentration to which PslvX is responsive” value (slvX promoter (PslvX); [5]) was “less than 1 nM”. For the same substance, the “PslvX activity upon sBI7 induction in ΔscuR” value (slvX promoter (PslvX); [6]) was “no activity in ΔscuR”, the “amplitude of PcomS response compared with PsptA and PslvX” value (comS promoter (PcomS); WT background, FIG. 3D) was “lowest” and the “peptide concentration to which PcomS is responsive” value (comS promoter (PcomS); [5]) was “less than 1 nM”. For the same substance, the “PcomS activity upon sBI7 induction in ΔscuR” value (comS promoter (PcomS); [6]) was “no activity in ΔscuR”, the “activation of comX and late competence genes under direct ComX control” value [2] was “cannot activate” and the “ScuR·sBI7 affinity for PcomS and PslvX in comparison to sComS-bound ComR” value (ScuR) was “appears weaker with a less stable complex”. For the same substance, the “peptide concentration from which ScuR shifts the PsptA probe” value (ScuR; ScuR 4 μM, peptide 2:2 dilutions from 20 μM) was ≥ 0.08 nM, the “ScuR affinity for PcomS probe” value (ScuR; with sBI7) was “weakest affinity” and the “ScuR affinity for PsptA probe” value (ScuR; with sBI7) was “strongest one”. The “halo of inhibition around producer strain” value ([3]; WT strain, sBI7 concentration ranging from 1 nM to 1 μM, indicator L. lactis) was “small halo of inhibition”, the “halo of inhibition in mutant producer strains” value ([3]; single ΔscuR, double ΔscuR-sarF or Δslv5 strains) was “eradicated” and the “support of natural transformation” value ([4]; Table 6) was “ineffective to support natural transformation”. For the same substance, the “Competence development (transformation frequency)” value (shortened to “Competence development”) ([4]; Wild-type strain, ratio of transformants (chloramphenicol-resistant CFU) to total CFU count per 0.1 ug of linear DNA) was “ND (ND: not detected (<1.0E−08))”, the “Competence development” value ([4]; ΔsarF strain, ratio of transformants to total CFU count per 0.1 ug of linear DNA) was “ND (ND: not detected (<1.0E−08))” and the “Competence development” value ([4]; ΔscuR strain, ratio of transformants to total CFU count per 0.1 ug of linear DNA) was “ND (ND: not detected (<1.0E−08))”.
